For test [1], the target named is purified recombinant human GAC (GLS1) (Homo sapiens (Human), UniProt O94925). The test can be described thus: GLS1 Enzymatic Activity Assay (dual-coupled enzymatic assay, resorufin/Amplex UltraRed readout).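 Further: glutamate from GAC coupled via glutamate oxidase and peroxidase to resorufin, read as fluorescence (ex 530, em 590 nm) kinetically or at 20 min, four-parameter logistic IC50 fit.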 It counts as biochemical.
For the next test, the system named is A549 cells. The test can be described thus: Proliferation Assay (A549 viability, Cell Titer Fluor, 72 hours). The note with it: Homo sapiens. In kind it is cell-based. Here is the method: A549 cells were routinely maintained in RPMI 1640 media (Gibco catalog number 11875-093) supplemented with 10% dialyzed fetal bovine serum using a humidified incubator (37° C., 5% CO2 and ambient O2). In preparation for the viability assay, cells were inoculated into 384-well black CulturPlates (Perkin Elmer) at a density of 1000 cells/well in a volume of 40 uL. Following a 24-hour incubation at 37° C., 5% CO2 and ambient O2, cells were treated with compound (10 uL) in a final DMSO concentration of 0.5% (v/v). The microplates were then incubated for 72 hours (37° C., 5% CO2 and ambient O2). Cell Titer Fluor (Promega) was subsequently added (10 uL of 6× reagent) and mixed for 15 minutes at room temperature. The plates were then incubated for 30 minutes (37° C., 5% CO2 and ambient O2) and fluorescence was subsequently read on the Perkin Elmer Envision plate reader. IC50 values were calculated using a four-parameter logistic curve fit.
Non-limiting examples include the following compounds and pharmaceutically acceptable salts thereof. […] “ND” indicates no data.

Among the data in patent US10344025B2, “GLS1 inhibitors for treating disease” (Board of Regents, The University of Texas System, priority 2014, dated 2019) are IC50 and EC50 values, retold here.

Bounds are passed on as bounds.

Chain of purified recombinant human GAC (GLS1) (O94925 other isoform, or with tags, fused parts or gaps): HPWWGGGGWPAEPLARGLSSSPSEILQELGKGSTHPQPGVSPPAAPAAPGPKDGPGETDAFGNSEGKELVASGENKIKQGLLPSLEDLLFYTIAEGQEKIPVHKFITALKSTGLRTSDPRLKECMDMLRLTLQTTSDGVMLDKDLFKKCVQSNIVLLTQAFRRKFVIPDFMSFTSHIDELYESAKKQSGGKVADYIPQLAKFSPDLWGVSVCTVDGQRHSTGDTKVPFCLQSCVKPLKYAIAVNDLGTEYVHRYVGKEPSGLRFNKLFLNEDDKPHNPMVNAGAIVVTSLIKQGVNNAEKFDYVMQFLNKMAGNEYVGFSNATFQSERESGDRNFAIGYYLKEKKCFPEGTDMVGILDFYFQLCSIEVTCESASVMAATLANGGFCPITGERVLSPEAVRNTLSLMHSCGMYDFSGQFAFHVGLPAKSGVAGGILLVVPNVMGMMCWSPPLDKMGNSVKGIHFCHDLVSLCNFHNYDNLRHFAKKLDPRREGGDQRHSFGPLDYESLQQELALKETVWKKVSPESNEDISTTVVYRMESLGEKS

For `CNC(=O)c1cn(CC(F)CCc2nnc(C(=O)NCc3cc(C(F)(F)F)ccn3)s2)nn1` (racemic) [Example 508, 5-(3-fluoro-4-(4-(methylcarbamoyl)-1H-1,2,3-triazol-1-yl)butyl)-N-((4-(trifluoromethyl)pyridin-2-yl)methyl)-1,3,4-thiadiazole-2-carboxamide], the IC50 in test [1] fell in the range of 100 to 500 nM. In the test with A549 cells, this compound registered an EC50 of 100 to 500 nM.

On to `CNC(=O)c1cn(C[C@@H](F)CCc2nnc(C(=O)NCc3cc(C(F)(F)F)ccn3)s2)nn1` (single isomer, unassigned) [Example 220], for which, in test [1], the IC50 fell in the range of 100 to 500 nM. This compound showed an EC50 in the test on A549 cells (A549, 72 h) of 500 to 5000 nM.

For `CNC(=O)c1cn(C[C@H](F)CCc2nnc(C(=O)NCc3cc(C(F)(F)F)ccn3)s2)nn1` (single isomer, unassigned) [Example 221], in test [1], the IC50 was in the range of 100 to 500 nM. The compound also had a concentration for a half-maximal effect (EC50) in the test on A549 cells (A549, 72 h) of 100 to 500 nM.

Regarding `O=C(Cc1cccc(OC(F)(F)F)c1)Nc1nnc(CCCCn2cc(C(=O)NCc3cccnc3)nn2)s1` [Example 1, N-(pyridin-3-ylmethyl)-1-[4-(5-{2-[3-(trifluoromethoxy)phenyl]acetamido}-1,3,4-thiadiazol-2-yl)butyl]-1H-1,2,3-triazole-4-carboxamide], the IC50 in test [1] was below 100 nM. Also, the EC50 with A549 cells (A549, 72 h) was below 100 nM.

On to `CNC(=O)c1cn(CCCCc2nnc(NC(=O)Cc3cccc(OC(F)(F)F)c3)s2)nn1` [Example 2, N-Methyl-1-(4-(5-(2-(3-(trifluoromethoxy)phenyl)acetamido)-1,3,4-thiadiazol-2-yl)butyl)-1H-1,2,3-triazole-4-carboxamide], for which the IC50 in test [1] was below 100 nM. The EC50 with A549 cells (A549, 72 h) was below 100 nM.

Consider `NC(=O)c1cn(CCCCc2nnc(NC(=O)Cc3cccc(OC(F)(F)F)c3)s2)nn1` [Example 3, 1-(4-(5-(2-(3-(Trifluoromethoxy)phenyl)acetamido)-1,3,4-thiadiazol-2-yl)butyl)-1H-1,2,3-triazole-4-carboxamide], for which the half-maximal inhibitory concentration (IC50) in test [1] lay within 100 to 500 nM. This compound registered an EC50 in the test with A549 cells (A549, 72 h) of 100 to 500 nM.

Regarding `O=C(Cc1ccccc1)Nc1nnc(CCCCCn2cc(C(=O)NCc3ccccc3)nn2)s1` [Example 4, N-Benzyl-1-(5-(5-(2-phenylacetamido)-1,3,4-thiadiazol-2-yl)pentyl)-1H-1,2,3-triazole-4-carboxamide], the IC50 in test [1] lay within 100 to 500 nM. This compound yielded an EC50 in the test with A549 cells (A549, 72 h) of 100 to 500 nM.

For `COCCNC(=O)c1nnc(CCCCc2ccc(NC(=O)Cc3cccc(OC(F)(F)F)c3)nn2)s1` [Example 6, N-(2-methoxyethyl)-5-(4-(6-(2-(3-(trifluoromethoxy)phenyl)acetamido)pyridazin-3-yl)butyl)-1,3,4-thiadiazole-2-carboxamide], the IC50 in test [1] was below 100 nM. In the test on A549 cells (A549, 72 h), this compound yielded an EC50 below 100 nM.

In the case of `COCCNC(=O)c1nnc(CCCCn2cc(C(=O)NCc3cccc(C(F)(F)F)c3)nn2)s1` [Example 7, N-(2-methoxyethyl)-5-(4-(4-(3-(trifluoromethyl)benzylcarbamoyl)-1H-1,2,3-triazol-1-yl)butyl)-1,3,4-thiadiazole-2-carboxamide], the IC50 in test [1] lay in the range of 100 to 500 nM. This compound yielded a 50% effective concentration (EC50) with A549 cells (A549, 72 h) of 100 to 500 nM.

For `O=C(Cc1cccc(OC(F)(F)F)c1)Nc1nnc(CCCCn2cc(C(=O)NCC3CC3)nn2)s1` [Example 11, N-(cyclopropylmethyl)-1-[4-(5-{2-[3-(trifluoromethoxy)phenyl]acetamido}-1,3,4-thiadiazol-2-yl)butyl]-1H-1,2,3-triazole-4-carboxamide], the IC50 in test [1] was below 100 nM. The same compound displayed an EC50 in the test on A549 cells (A549, 72 h) of 100 to 500 nM.

`O=C(Cc1cccc(OC(F)(F)F)c1)Nc1nnc(CCCCn2cc(C(=O)NCC3CCOC3)nn2)s1` (centres unmarked) [Example 12, N-(oxolan-3-ylmethyl)-1-[4-(5-{2-[3-(trifluoromethoxy)phenyl]acetamido}-1,3,4-thiadiazol-2-yl)butyl]-1H-1,2,3-triazole-4-carboxamide]: the IC50 in test [1] was below 100 nM. Moreover, the concentration for a half-maximal effect (EC50) with A549 cells (A549, 72 h) was below 100 nM.

In the case of `O=C(Cc1ccccc1)Nc1nnc(CCCCn2cc(C(=O)NCCc3ccccc3)nn2)s1` [Example 13, 1-{4-[5-(2-phenylacetamido)-1,3,4-thiadiazol-2-yl]butyl}-N-(2-phenylethyl)-1H-1,2,3-triazole-4-carboxamide], the IC50 in test [1] is below 100 nM. The same compound had a concentration for a half-maximal effect (EC50) in the test with A549 cells (A549, 72 h) of 500 to 5000 nM.

With `O=C(Cc1ccccc1)Nc1nnc(CCCCn2cc(C(=O)NCc3ccccc3)nn2)s1` [Example 15, N-benzyl-1-{4-[5-(2-phenylacetamido)-1,3,4-thiadiazol-2-yl]butyl}-1H-1,2,3-triazole-4-carboxamide], the IC50 in test [1] was below 100 nM. This compound returned a concentration for a half-maximal effect (EC50) with A549 cells (A549, 72 h) of 100 to 500 nM.

On to `O=C(Cc1cccc(OC(F)(F)F)c1)Nc1nnc(CCCCn2cc(C(=O)NCc3ccccc3)nn2)s1` [Example 16, N-benzyl-[4-(5-{2-[3-(trifluoromethoxy)phenyl]acetamido}-1,3,4-thiadiazol-2-yl)butyl]-1H-1,2,3-triazole-4-carboxamide], for which the concentration for half-maximal inhibition (IC50) in test [1] was below 100 nM. Besides, in the test with A549 cells (A549, 72 h), the EC50 is below 100 nM.

Consider `O=C(Cc1cccc(OC(F)(F)F)c1)Nc1nnc(CCCCn2cc(C(=O)NCCO)nn2)s1` [Example 17, N-(2-hydroxyethyl)-1-[4-(5-{2-[3-(trifluoromethoxy)phenyl]acetamido}-1,3,4-thiadiazol-2-yl)butyl]-1H-1,2,3-triazole-4-carboxamide], for which the half-maximal inhibitory concentration (IC50) in test [1] lay within 100 to 500 nM. In the test with A549 cells (A549, 72 h), this compound returned an EC50 of 100 to 500 nM.

For `CC(C)(NC(=O)c1cn(CCCCc2nnc(NC(=O)Cc3cccc(OC(F)(F)F)c3)s2)nn1)c1ccccc1` [Example 18, N-(2-phenylpropan-2-yl)-1-[4-(5-{2-[3-(trifluoromethoxy)phenyl]acetamido}-1,3,4-thiadiazol-2-yl)butyl]-1H-1,2,3-triazole-4-carboxamide], the IC50 in test [1] was 100 to 500 nM. This compound registered an EC50 in the test on A549 cells (A549, 72 h) of 100 to 500 nM.

With `O=C(Cc1cccc(OC(F)(F)F)c1)Nc1nnc(CCCCn2cc(C(=O)NCc3ccccn3)nn2)s1` [Example 19, N-(pyridin-2-ylmethyl)-1-[4-(5-{2-[3-(trifluoromethoxy)phenyl]acetamido}-1,3,4-thiadiazol-2-yl)butyl]-1H-1,2,3-triazole-4-carboxamide], in test [1], the IC50 is below 100 nM. In the test with A549 cells (A549, 72 h), this compound registered an EC50 below 100 nM.

With `O=C(Cc1cccc(OC(F)(F)F)c1)Nc1ccc(CCCCn2cc(C(=O)NCc3ccccn3)nn2)nn1` [Example 529, N-(pyridin-2-ylmethyl)-1-[4-(6-{2-[3-(trifluoromethoxy)phenyl]acetamido}pyridazin-3-yl)butyl]-1H-1,2,3-triazole-4-carboxamide], the EC50 in the test with A549 cells (A549, 72 h) was below 100 nM.

`CNC(=O)c1cn(CCCCc2ccc(NC(=O)Cc3cccnc3)nn2)nn1` [Example 541, N-methyl-1-(4-{6-[2-(pyridin-3-yl)acetamido]pyridazin-3-yl}butyl)-1H-1,2,3-triazole-4-carboxamide] displayed an EC50 in the test with A549 cells (A549, 72 h) of 500 to 5000 nM.

Regarding `CNC(=O)c1cn(CCCCc2ccc(NC(=O)Cc3ccc(Cl)nc3)nn2)nn1` [Example 544, 1-(4-{6-[2-(6-chloropyridin-3-yl)acetamido]pyridazin-3-yl}butyl)-N-methyl-1H-1,2,3-triazole-4-carboxamide], the EC50 in the test with A549 cells (A549, 72 h) was in the range of 100 to 500 nM.

Consider `CNC(=O)c1cn(CCCCc2ccc(NC(=O)Cc3cncc(Br)c3)nn2)nn1` [Example 546, 1-(4-{6-[2-(5-bromopyridin-3-yl)acetamido]pyridazin-3-yl}butyl)-N-methyl-1H-1,2,3-triazole-4-carboxamide], for which the EC50 in the test with A549 cells (A549, 72 h) lay in the range of 100 to 500 nM.

For the compound `CC(C)(O)CNC(=O)c1cn(CCCCc2ccc(NC(=O)Cc3cccc(OC(F)(F)F)c3)nn2)nn1` [Example 549, N-(2-hydroxy-2-methylpropyl)-1-[4-(6-{2-[3-(trifluoromethoxy)phenyl]acetamido}pyridazin-3-yl)butyl]-1H-1,2,3-triazole-4-carboxamide], the concentration giving a half-maximal response (EC50) with A549 cells (A549, 72 h) fell in the range of 500 to 5000 nM.

With `COCCNC(=O)c1cn(CCCCc2ccc(NC(=O)Cc3cccc(OC(F)(F)F)c3)nn2)nn1` [Example 551, N-(2-methoxyethyl)-1-[4-(6-{2-[3-(trifluoromethoxy)phenyl]acetamido}pyridazin-3-yl)butyl]-1H-1,2,3-triazole-4-carboxamide], the EC50 in the test on A549 cells (A549, 72 h) lay within 100 to 500 nM.

For the compound `CNC(=O)c1cn(CCCCc2ccc(NC(=O)Cc3cc(-c4ccc(F)cc4C(F)(F)F)ccn3)nn2)nn1` [Example 606, 1-(4-(6-(2-(4-(4-fluoro-2-(trifluoromethyl)phenyl)pyridin-2-yl)acetamido)pyridazin-3-yl)butyl)-N-methyl-1H-1,2,3-triazole-4-carboxamide], the EC50 with A549 cells (A549, 72 h) is below 100 nM.

As to `CNC(=O)c1cn(CCCCc2ccc(NC(=O)Cc3cc(-c4cccc(OC(F)(F)F)c4F)ccn3)nn2)nn1` [Example 607, 1-(4-(6-(2-(4-(2-fluoro-3-(trifluoromethoxy)phenyl)pyridin-2-yl)acetamido)pyridazin-3-yl)butyl)-N-methyl-1H-1,2,3-triazole-4-carboxamide], in the test with A549 cells (A549, 72 h), the EC50 was below 100 nM.

Take `CNC(=O)c1cn(CCCCc2ccc(NC(=O)Cc3cc(-c4cccc(Cl)c4OC(F)(F)F)ccn3)nn2)nn1` [Example 608, 1-(4-(6-(2-(4-(3-chloro-2-(trifluoromethoxy)phenyl)pyridin-2-yl)acetamido)pyridazin-3-yl)butyl)-N-methyl-1H-1,2,3-triazole-4-carboxamide]: the EC50 in the test on A549 cells (A549, 72 h) was below 100 nM.

With `CNC(=O)c1cn(CCCCc2ccc(NC(=O)Cc3cc(-c4cc(F)ccc4C)ccn3)nn2)nn1` [Example 609, 1-(4-(6-(2-(4-(5-fluoro-2-methylphenyl)pyridin-2-yl)acetamido)pyridazin-3-yl)butyl)-N-methyl-1H-1,2,3-triazole-4-carboxamide], in the test on A549 cells (A549, 72 h), the half-maximal effective concentration (EC50) is below 100 nM.

One may read the IC50 as the point on the concentration scale where inhibition reaches its midpoint. Usually EC50 stands for the concentration at which the effect is half-maximal. The low end stands for higher potency in that assay, the high end for lower potency in that assay.
